How the values were obtained:
Conditions in all cases: 72 h
HepG2 [1] = assay: cell viability relative to DMSO; higher = less toxic
Vero E6 [2] = assay: as above
Caco-2 [3] = assay: as above
U2OS [4] = assay: as above
HepG2 [5] = assay: drug sensitivity score (DSS) for viability; higher = more toxic; extreme values may be limits of the assay
Vero E6 [6] = assay: as above
Caco-2 [7] = assay: as above
U2OS [8] = assay: as above
HepG2 [9] = assay: relative viability EC50 (midpoint between 100% and the lowest measured viability); higher = less toxic
Vero E6 [10] = assay: as above
Caco-2 [11] = assay: as above
U2OS [12] = assay: as above
Calu-3 [13] = assay: drug sensitivity score (DSS) for viability; higher = more toxic; extreme values may be limits of the assay
Calu-3 [14] = assay: cell viability relative to DMSO; higher = less toxic

| Compound | cell viability (HepG2 [1]; 1 nM) [%] | cell viability (HepG2 [1]; 10 nM) [%] | cell viability (HepG2 [1]; 100 nM) [%] | cell viability (HepG2 [1]; 1000 nM) [%] | cell viability (HepG2 [1]; 10000 nM) [%] | cell viability (Vero E6 [2]; 1 nM) [%] | cell viability (Vero E6 [2]; 10 nM) [%] | cell viability (Vero E6 [2]; 100 nM) [%] | cell viability (Vero E6 [2]; 1000 nM) [%] | cell viability (Vero E6 [2]; 10000 nM) [%] | cell viability (Caco-2 [3]; 1 nM) [%] | cell viability (Caco-2 [3]; 10 nM) [%] | cell viability (Caco-2 [3]; 100 nM) [%] | cell viability (Caco-2 [3]; 1000 nM) [%] | cell viability (Caco-2 [3]; 10000 nM) [%] | cell viability (U2OS [4]; 1 nM) [%] | cell viability (U2OS [4]; 10 nM) [%] | cell viability (U2OS [4]; 100 nM) [%] | cell viability (U2OS [4]; 1000 nM) [%] | cell viability (U2OS [4]; 10000 nM) [%] | drug sensitivity score (HepG2 [5]) | drug sensitivity score (Vero E6 [6]) | drug sensitivity score (Caco-2 [7]) | drug sensitivity score (U2OS [8]) | relative viability EC50 (HepG2 [9]) [µM] | relative viability EC50 (Vero E6 [10]) [µM] | relative viability EC50 (Caco-2 [11]) [µM] | relative viability EC50 (U2OS [12]) [µM] | drug sensitivity score (Calu-3 [13]) | cell viability (Calu-3 [14]; 1 nM) [%] | cell viability (Calu-3 [14]; 10 nM) [%] | cell viability (Calu-3 [14]; 100 nM) [%] | cell viability (Calu-3 [14]; 1000 nM) [%] | cell viability (Calu-3 [14]; 10000 nM) [%] |
| --- | --- | --- | --- | --- | --- | --- | --- | --- | --- | --- | --- | --- | --- | --- | --- | --- | --- | --- | --- | --- | --- | --- | --- | --- | --- | --- | --- | --- | --- | --- | --- | --- | --- | --- |
| COC(=O)c1cc(OC)c2c(c1-c1c(CO)cc(OC)c3c1OCO3)OCO2 [bicyclol] | 90.5 | 97.8 | 92.1 | 108 | 100 | 108 | 105 | 104 | 99.9 | 100 | 89.9 | 98.7 | 104 | 101 | 101 | 101 | 97.6 | 97.8 | 98.2 | 94.8 | 0 | 0 | 0 | 0 | > 10 | > 10 | > 10 | > 10 | – | – | – | – | – | – |
| Nc1nc(=O)c(Br)c(-c2ccccc2)[nH]1 [bropirimine] | 102 | 118 | 92.4 | 103 | 114 | 94.8 | 98.3 | 92.4 | 98.7 | 102 | 96.6 | 91.4 | 102 | 87.8 | 112 | 92.8 | 95.1 | 102 | 95.7 | 104 | 0 | 0 | 0 | 0 | > 10 | > 10 | > 10 | > 10 | – | – | – | – | – | – |
| CCN(CC)CCOC(=O)C1(c2ccccc2)CCCC1 [caramiphen] | – | – | – | – | – | – | – | – | – | – | – | – | – | – | – | – | – | – | – | – | 0 | 0 | – | 0 | – | – | – | – | 0 | – | – | – | – | – |
| O=c1c(-c2ccc(O)cc2)coc2cc(O)ccc12 [daidzein] | – | – | – | – | – | – | – | – | – | – | – | – | – | – | – | – | – | – | – | – | 0 | 0 | – | 0 | – | – | – | – | 0 | – | – | – | – | – |
| O=c1oc2ccccc2c(O)c1Cc1c(O)c2ccccc2oc1=O [dicoumarol] | – | – | – | – | – | – | – | – | – | – | – | – | – | – | – | – | – | – | – | – | – | 0 | – | 0 | – | – | – | – | 0 | – | – | – | – | – |
| CN[C@@H](C)[C@H](O)c1ccccc1 [ephedrine] | – | – | – | – | – | – | – | – | – | – | – | – | – | – | – | – | – | – | – | – | 0 | 0 | – | 0 | – | – | – | – | – | – | – | – | – | – |
| COC(=O)[C@@H]1CC2=CC(=O)CC[C@]2(C)[C@@]23O[C@@H]2C[C@@]2(C)[C@@H](CC[C@@]24CCC(=O)O4)[C@H]13 [eplerenone] | – | – | – | – | – | 99.7 | 100 | 99.1 | 101 | 95 | 98.4 | 101 | 85.8 | 92.8 | 98.4 | – | – | – | – | – | – | 0 | 0 | – | – | > 10 | > 10 | – | – | – | – | – | – | – |
| NP(N)(=O)NC(=O)c1ccc(F)cc1 [flurofamide] | 101 | 98.6 | 90.1 | 95 | 103 | 103 | 102 | 103 | 97.6 | 102 | 95.9 | 96.4 | 90.9 | 94.7 | 91 | 100 | 102 | 97.3 | 99.4 | 96 | 0 | 0 | 0 | 0 | > 10 | > 10 | > 10 | > 10 | – | – | – | – | – | – |
| Oc1ccc(CC2NCCc3cc(O)c(O)cc32)cc1 (configuration not stated) [higenamine] | 105 | 97.1 | 99.3 | 83.3 | 32.6 | 104 | 99.2 | 102 | 100 | 48.6 | 97.6 | 102 | 94.9 | 86.2 | 59.4 | 98.1 | 103 | 97.5 | 98.1 | 36.6 | 6.3 | 2.7 | 3.5 | 3.7 | 1.56 | 3.22 | – | 2.95 | – | – | – | – | – | – |
| O=S(=O)(c1cccc2c(O)nccc12)N1CCCNCC1 [hydroxyfasudil] | 96.6 | 97.7 | – | 97.7 | 98.3 | 95.7 | 95.8 | 96.4 | 90.3 | 107 | 98.7 | 99.3 | 94 | 107 | 109 | 95.4 | 101 | 96.4 | – | 102 | 0 | 0 | 0 | 0 | – | – | – | – | 0 | 91.6 | 94.1 | 110 | 119 | 136 |
| O=[N+]([O-])O[C@@H]1CO[C@H]2[C@@H]1OC[C@@H]2O [isosorbide-mononitrate] | 101 | 108 | 91.2 | 98.7 | 93.3 | 103 | 103 | 101 | 104 | 94.4 | 100 | 111 | 94.4 | 117 | 114 | 96.5 | 96.8 | 93.5 | 96.7 | 97.2 | 0 | 0 | 0 | 0 | > 10 | > 10 | > 10 | > 10 | – | – | – | – | – | – |
| CC(COc1ccccc1)NC(C)C(O)c1ccc(O)cc1 (configuration not stated) [isoxsuprine] | – | – | – | – | – | – | – | – | – | – | – | – | – | – | – | – | – | – | – | – | 0 | 0 | – | – | – | – | – | – | 0 | – | – | – | – | – |
| O=c1c(O)c(-c2ccc(O)cc2)oc2cc(O)cc(O)c12 [kaempferol] | 93.8 | 86.9 | 106 | 97.5 | 94.1 | 101 | 104 | 98.5 | 102 | 103 | 98.5 | 99.9 | 97.5 | 95.9 | 82.4 | 98.2 | 99.6 | 97 | 96.7 | 101 | 0 | 0 | 0.9 | 0 | > 10 | > 10 | > 10 | > 10 | – | – | – | – | – | – |
| COC(=O)Nc1nc2cc(C(=O)c3ccccc3)ccc2[nH]1 [mebendazole] | 97.5 | 109 | 102 | 44.3 | 40.9 | 111 | 97.6 | 102 | 84.7 | 35.6 | 91.6 | 104 | 88.4 | 67.2 | 55.6 | 95.5 | 102 | 95.5 | 66 | 41.2 | 10.1 | 5.9 | 7 | 7.3 | 0.387 | 1.59 | – | 0.774 | 3.4 | 81.1 | 107 | 95 | 84.6 | 61.3 |
| COc1cc(NC(=O)Nc2cccc(CNC(=O)O[C@H]3CCOC3)c2)ccc1-c1cnco1 [merimepodib] | – | – | – | – | – | – | – | – | – | – | – | – | – | – | – | – | – | – | – | – | 4.3 | 0 | – | 3.7 | – | – | – | – | 3.6 | – | – | – | – | – |
| COC(=O)Nc1nc2cc(SC(C)C)ccc2[nH]1 [methiazole] | 95 | 105 | 95.7 | 83.4 | 35 | 91.9 | 103 | 92.6 | 86.6 | 47.5 | 104 | 100 | 99.1 | 86.8 | 49 | 101 | 97.6 | 99.9 | 86.4 | 41.1 | 6.1 | 4.7 | 4.8 | 5.4 | 1.53 | 1.61 | 1.52 | 1.62 | 4 | 95.5 | 97 | 103 | 81.6 | 64.6 |
| CN(C)C(=O)Oc1cccc([N+](C)(C)C)c1 [neostigmine] | – | – | – | – | – | 91.1 | 93.1 | 90.6 | 94.8 | 112 | 97.2 | 91.9 | 100 | 93.7 | 99.2 | 97.8 | 95.7 | 102 | 97.9 | 100 | – | 0 | 0 | 0 | – | > 10 | > 10 | > 10 | – | – | – | – | – | – |
| CCOc1ccc(C(=O)OCCN(CC)CC)cc1 [parethoxycaine] | 98.6 | 116 | 106 | 108 | 102 | 94.6 | 95.6 | 92.3 | 97.5 | 111 | 97.1 | 85.1 | 95.6 | 93.7 | 104 | 101 | 92.8 | 103 | 98.1 | 98.8 | 0 | 0 | 0 | 0 | > 10 | > 10 | > 10 | > 10 | – | – | – | – | – | – |
| C=C(C)[C@@H]1CC=C(CO)CC1 [perillyl-alcohol] | 101 | 93.2 | 108 | 94.5 | 92.9 | 98 | 102 | 98 | 95.5 | 96 | 99 | 99.6 | 102 | 102 | 98.6 | 105 | 98.2 | 98.8 | 95.6 | 98.5 | 0 | 0 | 0 | 0 | > 10 | > 10 | > 10 | > 10 | – | – | – | – | – | – |
| Nc1ccc(C(=O)Oc2ccccc2)c(O)c1 [phenyl-aminosalicylate] | – | – | – | – | – | – | – | – | – | – | – | – | – | – | – | – | – | – | – | – | 1 | 0 | – | 0 | – | – | – | – | 0 | – | – | – | – | – |
| CCCc1cc(=O)[nH]c(=S)[nH]1 [propylthiouracil] | – | – | – | – | – | – | – | – | – | – | – | – | – | – | – | – | – | – | – | – | – | 0 | – | 0 | – | – | – | – | 0 | – | – | – | – | – |
| CN(N=O)C(=O)N[C@@H](C=O)[C@@H](O)[C@H](O)[C@H](O)CO [streptozotocin] | 98.3 | 90.7 | 104 | 101 | 101 | 98.5 | 98.1 | 98.4 | 96.7 | 92.6 | 106 | 82.3 | 79.9 | 85.2 | 96.2 | 106 | 97.5 | 100 | 102 | 103 | 0 | 0 | 1 | 0 | > 10 | > 10 | > 10 | > 10 | – | – | – | – | – | – |
| COC[C@H]1OC(=O)c2coc3c2[C@@]1(C)C1=C(C3=O)[C@@H]2CCC(=O)[C@@]2(C)C[C@H]1OC(C)=O [wortmannin] | 98.4 | 97.4 | 98.2 | 98.2 | 86.7 | 106 | 103 | 97.3 | 88.9 | 76.8 | 102 | 99.3 | 88.2 | 58.3 | 40.8 | 95.1 | 99.3 | 94.1 | 91.1 | 65.1 | 0.3 | 1.7 | 9.1 | 2.8 | > 10 | > 10 | 0.409 | – | 7.9 | 93.8 | 90.6 | 82.7 | 69.5 | 51.4 |
